# Measured values: ChEMBL document CHEMBL1201862, “PubChem BioAssay data set” (2004)
#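 A five-concentration, 48-hour dose response in 96-well plates underlies each endpoint, interpolated linearly between surrounding concentrations. GI50 = concentration required for 50% inhibition of growth.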 Calls of active or inactive are those of the source. Rule as the data show it: active = GI50 up to about 1.1 µM and inactive = higher.
# Experiments:
# Test in all cases: growth of human tumour cells (NCI), 48 h
# SF-268 = test system: SF-268
# M14 = test system: M14
# KM12 = test system: KM12
# HCT-116 = test system: HCT-116
# SK-MEL-5 = test system: SK-MEL-5
# HL-60 = test system: HL-60
# SNB-75 = test system: SNB-75
# NCI-H522 = test system: NCI-H522
# BT-549 = test system: BT-549
# MDA-MB-435 = test system: MDA-MB-435
# MOLT-4 = test system: MOLT-4
# CCRF-CEM = test system: CCRF-CEM
# PC-3 = test system: PC-3
# SN12C = test system: SN12C
# MCF7 = test system: MCF7
# HOP-62 = test system: HOP-62
# OVCAR-8 = test system: OVCAR-8
# UO-31 = test system: UO-31
# SK-OV-3 = test system: SK-OV-3
# UACC-62 = test system: UACC-62
# OVCAR-5 = test system: OVCAR-5
# SF-539 = test system: SF-539
# EKVX = test system: EKVX
# RPMI-8226 = test system: RPMI-8226
# CAKI-1 = test system: CAKI-1
# NCI-H226 = test system: NCI-H226
# RXF 393 = test system: RXF 393
# OVCAR-3 = test system: OVCAR-3
# Malme-3M = test system: Malme-3M
# NCI-H23 = test system: NCI-H23
# LOX IMVI = test system: LOX IMVI
# HOP-92 = test system: HOP-92
# SF-295 = test system: SF-295
# T47D = test system: T47D
# COLO 205 = test system: COLO 205
# SK-MEL-2 = test system: SK-MEL-2
# IGROV-1 = test system: IGROV-1
# OVCAR-4 = test system: OVCAR-4
# Hs-578T = test system: Hs-578T
# SNB-19 = test system: SNB-19
# A549 = test system: A549
# SR = test system: SR
# HCT-15 = test system: HCT-15
# SW-620 = test system: SW-620
# A498 = test system: A498
# HT-29 = test system: HT-29
# SK-MEL-28 = test system: SK-MEL-28
# ACHN = test system: ACHN
# NCI/ADR-RES = test system: NCI/ADR-RES
# 786-0 = test system: 786-0
# K562 = test system: K562
# MDA-MB-231 = test system: MDA-MB-231
# DU-145 = test system: DU-145
# MDA-N = test system: MDA-N
# U-251 = test system: U-251
# TK-10 = test system: TK-10
# UACC-257 = test system: UACC-257
# HCC 2998 = test system: HCC 2998
# NCI-H460 = test system: NCI-H460
smiles,measurement,setting,value
COc1cc(S(=O)(=O)Nc2ccc(-c3csc(/N=C\c4ccccc4)n3)cc2)ccc1Cl,GI50,SF-268,32 µM (inactive)
same,GI50,M14,56.1 µM (inactive)
same,GI50,KM12,36.4 µM (inactive)
same,GI50,HCT-116,44.8 µM (inactive)
same,GI50,SK-MEL-5,52.7 µM (inactive)
same,GI50,HL-60,25.6 µM (inactive)
same,GI50,SNB-75,62.7 µM (inactive)
same,GI50,NCI-H522,29.9 µM (inactive)
same,GI50,BT-549,41.4 µM (inactive)
same,GI50,MDA-MB-435,34.1 µM (inactive)
same,GI50,MOLT-4,12.7 µM (inactive)
same,GI50,CCRF-CEM,17 µM (inactive)
same,GI50,PC-3,48.2 µM (inactive)
same,GI50,SN12C,> 100 µM (inactive)
same,GI50,MCF7,20.5 µM (inactive)
same,GI50,HOP-62,41.4 µM (inactive)
same,GI50,OVCAR-8,> 100 µM (inactive)
same,GI50,UO-31,74.3 µM (inactive)
same,GI50,SK-OV-3,> 100 µM (inactive)
same,GI50,UACC-62,29.9 µM (inactive)
same,GI50,OVCAR-5,> 100 µM (inactive)
same,GI50,SF-539,35.1 µM (inactive)
same,GI50,EKVX,30.3 µM (inactive)
same,GI50,RPMI-8226,32 µM (inactive)
same,GI50,CAKI-1,> 100 µM (inactive)
same,GI50,NCI-H226,75.2 µM (inactive)
same,GI50,RXF 393,1.44 µM (inactive)
same,GI50,OVCAR-3,56.9 µM (inactive)
same,GI50,Malme-3M,> 100 µM (inactive)
same,GI50,NCI-H23,60.7 µM (inactive)
same,GI50,LOX IMVI,43.9 µM (inactive)
same,GI50,HOP-92,> 100 µM (inactive)
same,GI50,SF-295,76.9 µM (inactive)
same,GI50,T47D,35.9 µM (inactive)
same,GI50,COLO 205,36.4 µM (inactive)
same,GI50,SK-MEL-2,25.2 µM (inactive)
same,GI50,IGROV-1,> 100 µM (inactive)
same,GI50,OVCAR-4,79.4 µM (inactive)
same,GI50,Hs-578T,53.3 µM (inactive)
same,GI50,SNB-19,31.6 µM (inactive)
same,GI50,A549,> 100 µM (inactive)
same,GI50,SR,29.8 µM (inactive)
same,GI50,HCT-15,> 100 µM
same,GI50,SW-620,33.5 µM (inactive)
same,GI50,A498,37.5 µM (inactive)
same,GI50,HT-29,44.2 µM (inactive)
same,GI50,SK-MEL-28,33.7 µM (inactive)
same,GI50,ACHN,> 100 µM (inactive)
same,GI50,NCI/ADR-RES,> 100 µM (inactive)
same,GI50,786-0,81.3 µM (inactive)
same,GI50,K562,32.2 µM (inactive)
same,GI50,MDA-MB-231,37.2 µM (inactive)
same,GI50,DU-145,85.1 µM (inactive)
same,GI50,MDA-N,39 µM (inactive)
N#Cc1ccc(OCc2nc3cc(C(F)(F)F)ccc3nc2-c2ccccc2)cc1,GI50,SF-268,> 100 µM (inactive)
same,GI50,M14,> 100 µM (inactive)
same,GI50,U-251,> 100 µM (inactive)
same,GI50,KM12,> 100 µM (inactive)
same,GI50,HCT-116,> 100 µM (inactive)
same,GI50,SK-MEL-5,> 100 µM (inactive)
same,GI50,HL-60,3.53 µM (inactive)
same,GI50,SNB-75,> 100 µM (inactive)
same,GI50,NCI-H522,7.62 µM (inactive)
same,GI50,BT-549,> 100 µM (inactive)
same,GI50,MDA-MB-435,> 100 µM (inactive)
same,GI50,MOLT-4,62.1 µM (inactive)
same,GI50,CCRF-CEM,57.7 µM (inactive)
same,GI50,PC-3,> 100 µM (inactive)
same,GI50,SN12C,> 100 µM (inactive)
same,GI50,MCF7,> 100 µM (inactive)
same,GI50,HOP-62,> 100 µM (inactive)
same,GI50,OVCAR-8,> 100 µM (inactive)
same,GI50,UO-31,> 100 µM (inactive)
same,GI50,TK-10,> 100 µM (inactive)
same,GI50,UACC-62,> 100 µM (inactive)
same,GI50,UACC-257,> 100 µM (inactive)
same,GI50,OVCAR-5,> 100 µM (inactive)
same,GI50,SF-539,> 100 µM (inactive)
same,GI50,EKVX,41.2 µM (inactive)
same,GI50,RPMI-8226,> 100 µM (inactive)
same,GI50,CAKI-1,> 100 µM (inactive)
same,GI50,OVCAR-3,> 100 µM (inactive)
same,GI50,Malme-3M,> 100 µM (inactive)
same,GI50,NCI-H23,> 100 µM (inactive)
same,GI50,LOX IMVI,> 100 µM (inactive)
same,GI50,HOP-92,> 100 µM (inactive)
same,GI50,SF-295,> 100 µM (inactive)
same,GI50,T47D,> 100 µM (inactive)
same,GI50,COLO 205,> 100 µM (inactive)
same,GI50,HCC 2998,> 100 µM (inactive)
same,GI50,NCI-H460,> 100 µM (inactive)
same,GI50,SK-MEL-2,> 100 µM (inactive)
same,GI50,IGROV-1,> 100 µM (inactive)
same,GI50,OVCAR-4,> 100 µM (inactive)
same,GI50,Hs-578T,> 100 µM (inactive)
same,GI50,SNB-19,> 100 µM (inactive)
same,GI50,A549,> 100 µM (inactive)
same,GI50,SR,70.5 µM (inactive)
same,GI50,HCT-15,> 10 µM
same,GI50,SW-620,> 100 µM (inactive)
same,GI50,A498,> 100 µM (inactive)
same,GI50,HT-29,7.93 µM (inactive)
same,GI50,SK-MEL-28,> 100 µM (inactive)
same,GI50,ACHN,> 100 µM (inactive)
same,GI50,NCI/ADR-RES,> 100 µM (inactive)
same,GI50,786-0,> 100 µM (inactive)
same,GI50,MDA-MB-231,51.1 µM (inactive)
same,GI50,DU-145,> 100 µM (inactive)
same,GI50,MDA-N,> 100 µM (inactive)
